Data taken from patent US20230117592A1 (SRI International, priority 2019, published 2023).

What was measured:
[1] = target: T1, 12-LOX (Homo sapiens, UniProt P18054); assay: 12-LOX fluorescent assay (in vitro lipoxygenase inhibition); format: biochemical; settings: 100 nM recombinant 12-LOX, 20 μM AA, DHR123 fluorescence; several values in a cell = repeat determinations; read-out: IC50 (μM) values for in vitro lipoxygenase inhibition, 12-LOX
T1 sequence (P18054 1-663): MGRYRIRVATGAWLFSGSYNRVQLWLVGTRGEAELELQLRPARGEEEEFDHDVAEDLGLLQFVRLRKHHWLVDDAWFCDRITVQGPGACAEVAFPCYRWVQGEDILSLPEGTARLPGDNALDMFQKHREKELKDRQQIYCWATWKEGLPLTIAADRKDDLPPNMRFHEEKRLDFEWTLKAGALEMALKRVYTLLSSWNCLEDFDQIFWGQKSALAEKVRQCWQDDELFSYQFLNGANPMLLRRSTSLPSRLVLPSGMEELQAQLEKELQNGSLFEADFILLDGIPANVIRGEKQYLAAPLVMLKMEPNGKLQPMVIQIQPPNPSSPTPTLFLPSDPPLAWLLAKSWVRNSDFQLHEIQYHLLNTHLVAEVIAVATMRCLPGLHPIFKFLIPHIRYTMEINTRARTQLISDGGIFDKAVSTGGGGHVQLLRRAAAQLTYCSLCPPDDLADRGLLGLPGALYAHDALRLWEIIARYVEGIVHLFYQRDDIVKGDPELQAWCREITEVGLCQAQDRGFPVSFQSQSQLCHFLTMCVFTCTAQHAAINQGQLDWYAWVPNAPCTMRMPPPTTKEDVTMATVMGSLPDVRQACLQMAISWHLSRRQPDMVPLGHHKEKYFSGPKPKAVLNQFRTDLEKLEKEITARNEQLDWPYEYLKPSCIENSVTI
Method in brief: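 Fluorescent assay in 50 mM Tris pH 7.5, 0.05% Tween-20, with 100 nM recombinant 12-LOX preincubated 15 min with inhibitor. Reaction was started with 20 μM arachidonic acid substrate and 1 μM DHR123. Percent inhibition per dose was fitted by 4-parameter logistic or sigmoidal dose-response for IC50.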

[2] = target: T2, 5-LOX (Homo sapiens, UniProt P09917); assay: 5-LOX fluorescent assay (in vitro lipoxygenase inhibition); format: biochemical; settings: recombinant 5-LOX cell lysate, 20 μM AA, DHR123 fluorescence; several values in a cell = repeat determinations; read-out: IC50 (μM) values for in vitro lipoxygenase inhibition, 5-LOX
T2 sequence (P09917 1-674): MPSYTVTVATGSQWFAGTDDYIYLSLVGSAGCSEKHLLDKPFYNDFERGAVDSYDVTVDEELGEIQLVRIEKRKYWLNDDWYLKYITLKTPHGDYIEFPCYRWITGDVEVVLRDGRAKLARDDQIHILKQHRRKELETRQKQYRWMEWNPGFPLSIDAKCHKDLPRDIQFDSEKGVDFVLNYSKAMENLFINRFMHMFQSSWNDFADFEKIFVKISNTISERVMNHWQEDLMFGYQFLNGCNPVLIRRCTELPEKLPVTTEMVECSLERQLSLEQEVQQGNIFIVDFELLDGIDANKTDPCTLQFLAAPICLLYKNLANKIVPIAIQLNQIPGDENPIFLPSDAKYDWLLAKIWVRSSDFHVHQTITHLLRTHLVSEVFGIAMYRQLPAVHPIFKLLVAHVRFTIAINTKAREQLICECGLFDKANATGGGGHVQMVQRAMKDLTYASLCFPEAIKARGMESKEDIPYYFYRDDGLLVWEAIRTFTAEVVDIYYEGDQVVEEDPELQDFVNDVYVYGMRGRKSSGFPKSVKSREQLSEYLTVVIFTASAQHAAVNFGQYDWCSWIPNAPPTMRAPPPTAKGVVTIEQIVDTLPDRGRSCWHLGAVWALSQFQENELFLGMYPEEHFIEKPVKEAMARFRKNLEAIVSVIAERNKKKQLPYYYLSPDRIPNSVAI
Method in brief: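 Recombinant human 5-LOX cell lysate pre-incubated 15 min with inhibitor in 50 mM Tris pH 7.5, 0.1 mM EDTA, 0.3 mM CaCl2. Reaction started with 20 μM arachidonic acid plus 100 μM ATP, with 1 μM DHR123 as fluorescent probe. IC50 from percent inhibition per dose via 4-parameter logistic or sigmoidal dose-response fit.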

IC50 [1]: 0.03 µM | IC50 [2]: 0.04 µM
SMILES: Cc1cc(Nc2ccc(Cl)c(F)c2)ccc1NCC1(Cn2ccnc2)COC1 [SS20308-0328-01, N^1-((3-((1H-imidazol-1-yl)methyl)oxetan-3-yl)methyl)-N^4-(4-chloro-3-fluorophenyl)-2-methylbenzene-1,4-diamine]
